Data published in patent US5326566A, “Use of dibutyl adipate and isopropyl myristate in topical and transdermal products” (Bristol-Myers Squibb Company, priority 1993, dated 1994).
Where two headings read alike, the source gives them in different places. Each block holds one molecule with its values, some of them ahead of it.

How the values were obtained:
[1] = literature (Martindale) for dimethyl sulfoxide; cited from earlier work
[2] = Excerpt: Only skin that appeared normal was used.
Halobetasol propionate is commercially available by Bristol-Myers Squibb as ULTRAVATE® Cream and ULTRAVATE® Ointment. ULTRAVATE® Cream is an oil-in-water emulsion containing isopropyl palmitate and isopropyl isostearate as emollients. The ULTRAVATE® Ointment is a nonaqueous emulsion of propylene glycol in a petrolatum base.
In a different human skin study, the in vitro skin penetration of halobetasol propionate from ULTRAVATE® Ointment, FN8-1114-16 cream and FN8-1114-13 cream, was evaluated (see Table 3, Study II). ULTRAVATE® Ointment was used as a control in order to normalize the data, and to assist in the comparison of skin penetration of different formulations when evaluated for skin penetration in different human skin.

[3] = applied topically; more pronounced in occluded condition; cited from earlier work
[4] = prior art skin permeation enhancers; cited from earlier work
[5] = tested on: utriculi of rhino mouse skin; assay: Rhino mouse utriculi model (efficacy of tretinoin formulations, reduction of utriculi diameter); type: in vivo; conditions: topical, once a day for five days, FIG. 4
Experimental: Female rhino mice were obtained from the Skin and Cancer Hospital, Temple University, Philadelphia, Pennsylvania. Upon receipt, the rhino mice were treated with an anti-parasitic agent, trichlorfon (COMBOT®), to rid them of pinworms. It was administered in their drinking water for two weeks. An additional two weeks was allowed to pass without COMBOT® treatment before mice were placed on study. Animals were housed in accordance with the National Institute of Health guidelines and had free access to food and water. At the time of the study initiation, the mice were 9-14 weeks old.
The mice were individually housed in a plastic shoe box cage with corn cob bedding and placed in rooms illuminated with yellow lights, cycled for 12 hours on and 12 hours off during the study. […]
The sheets were then evaluated for changes in the sizes of the utriculi as follows: The maximum diameter of 20 representative utriculi per tissue sample were measured, using an IBM PC computer image measurement program (Microscience, Inc., Federal Way, Washington D.C.) and an Olympus microscope (200×magnification). Retinoid effects were evaluated as a percent reduction in uterine diameter by comparing mean diameter of the vehicle treated groups to that of formulation treated groups.

[6] = Saturation / degree of unsaturation of the oil phase; type: physicochemical; conditions: 0.5 wt % DBA and 10 wt % IPM as solvents in the oil phase
Text: A degree of unsaturation of 1.5 means that the amount of DBA, or DBA and IPM, present in the oil phase is one and a half times the amount required to dissolve the halobetasol propionate in the oil phase of the composition so that the final oil phase of the composition is saturated with respect to the halobetasol propionate, plus contains a 50% excess of such solvent(s).
An unsaturation value of 1.5 means the oil phase of the final composition contains more of the solvent system of the present invention than the minimum required to make such oil phase saturated, saturation of course being relative to the halobetasol propionate. The 1.5 unsaturation value indicates the oil phase of the final composition contains 11/2 times the amount of solvent system required to produce a final composition the oil phase of which is saturated with respect to halobetasol propionate (in other words, the oil phase of the final composition contains a 50% surplus of the solvent system of the invention).

Compound: CN(C)C=O [Dimethyl formamide, dimethyl formamide]
side effects, in words [1]: cause a sensation of burning and erythema on the skin

Compound: CC(O)CO (stereo not drawn) [PG, propylene glycol]
skin penetration enhancement of halobetasol propionate by solvent/enhancer, in words [2]: does not improve the skin penetration of halobetasol propionate any further
irritation/sensitization, in words [3]: can be a sensitizer and irritant when applied topically

Compound: CCCCCCCCCC[S+](C)[O-] (stereo not drawn) [decyl methyl sulfoxide]
skin permeation of oil-soluble drugs, in words [4]: generally do not increase skin permeation of oil-soluble drugs

Compound: CCCCOC(=O)CCCCC(=O)OCCCC [dibutyl adipate]
efficacy of tretinoin formulations (rank order / activity in words) [5]: increases the efficacy and hence the topical bioavailability of tretinoin

Compound: C[S+](C)[O-] [dimethyl sulfoxide]
side effects, in words [1]: causes in animals a foul taste and body odor, burning and erythema on the skin, a reduction in the relucency of the lens cortex and tissue necrosis

saturated solution of halobetasol propionate in the oil phase [6]: 0.05 wt %
Compound: CCC(=O)O[C@]1(C(=O)CCl)[C@@H](C)C[C@H]2[C@@H]3C[C@H](F)C4=CC(=O)C=C[C@]4(C)[C@@]3(F)[C@@H](O)C[C@@]21C [halobetasol propionate]

Compound: CC(C)CCCCCCCCCCCCCCC(=O)OC(C)C [isopropyl isostearate]
skin penetration enhancement of halobetasol propionate by solvent/enhancer, in words [2]: did not enhance the penetration of halobetasol propionate from ULTRAVATE® Cream as compared to ULTRAVATE® Ointment

Compound: CCCCCCCCCCCCCCCC(=O)OC(C)C [isopropyl palmitate]
skin penetration enhancement of halobetasol propionate by solvent/enhancer, in words ([2]; conclusions from Study I and Study II): did not enhance the penetration of halobetasol propionate from ULTRAVATE® Cream as compared to ULTRAVATE® Ointment
